In brackets after ≈: the same amount, converted by molar mass.
Columns and labels:
[1] = tested on: Trichophyton rubrum; assay: Antifungal activity against Trichophyton rubrum; format: functional
[2] = tested on: Trichophyton benhamiae; assay: Antifungal activity against Trichophyton mentagrophytes; format: functional, Arthroderma benhamiae
[3] = tested on: Candida albicans; assay: Antifungal activity against Candida albicans; format: functional
[4] = tested on: Cryptococcus neoformans; assay: Antifungal activity against Cryptococcus neoformans; format: functional
[5] = tested on: Aspergillus fumigatus; assay: Antifungal activity against Aspergillus fumigatus; format: functional

Row | Structure (SMILES) | MIC [1] | MIC [2] | MIC [3] | MIC [4] | MIC [5]
1 | Fc1ccc(B2OCc3ccccc32)cc1 | 8 µg/mL (≈ 37.7 µM) | 4 µg/mL (≈ 18.9 µM) | 4 µg/mL (≈ 18.9 µM) | 2 µg/mL (≈ 9.43 µM) | 2 µg/mL (≈ 9.43 µM)
2 | c1ccc(B2OCCc3ccccc32)cc1 | 8 µg/mL (≈ 38.4 µM) | 8 µg/mL (≈ 38.4 µM) | 8 µg/mL (≈ 38.4 µM) | 16 µg/mL (≈ 76.9 µM) | 16 µg/mL (≈ 76.9 µM)
3 | C=CB1OCc2cc(F)ccc21 | 4 µg/mL (≈ 24.7 µM) | 2 µg/mL (≈ 12.3 µM) | 1 µg/mL (≈ 6.17 µM) | 4 µg/mL (≈ 24.7 µM) | 2 µg/mL (≈ 12.3 µM)
4 | Fc1ccc2c(c1)COB2/C=C/c1ccccc1 | ≤ 1 µg/mL | 2 µg/mL (≈ 8.4 µM) | 0.5 µg/mL (≈ 2.1 µM) | 0.5 µg/mL (≈ 2.1 µM) | 1 µg/mL (≈ 4.2 µM)
5 | Cc1cscc1B1OCc2cc(F)ccc21 | 1 µg/mL (≈ 4.31 µM) | 2 µg/mL (≈ 8.62 µM) | 1 µg/mL (≈ 4.31 µM) | 1 µg/mL (≈ 4.31 µM) | 1 µg/mL (≈ 4.31 µM)
6 | Fc1cccc(B2OCc3cc(F)ccc32)c1 | 1 µg/mL (≈ 4.35 µM) | 2 µg/mL (≈ 8.69 µM) | 0.5 µg/mL (≈ 2.17 µM) | 1 µg/mL (≈ 4.35 µM) | 1 µg/mL (≈ 4.35 µM)
7 | OCc1ccc2c(c1)COB2O | 64 µg/mL (≈ 390 µM) | 64 µg/mL (≈ 390 µM) | > 64 µg/mL | > 64 µg/mL | > 64 µg/mL
8 | OB1OCc2c(F)cccc21 | 16 µg/mL (≈ 105 µM) | 16 µg/mL (≈ 105 µM) | 64 µg/mL (≈ 421 µM) | 32 µg/mL (≈ 211 µM) | 32 µg/mL (≈ 211 µM)
9 | CC1OB(O)c2ccc(F)cc21 (stereo not given) | 32 µg/mL (≈ 193 µM) | 16 µg/mL (≈ 96.4 µM) | 16 µg/mL (≈ 96.4 µM) | 32 µg/mL (≈ 193 µM) | 16 µg/mL (≈ 96.4 µM)
10 | Fc1ccc2c(c1)COB2c1ccccc1 | 1 µg/mL (≈ 4.72 µM) | 2 µg/mL (≈ 9.43 µM) | 0.5 µg/mL (≈ 2.36 µM) | 2 µg/mL (≈ 9.43 µM) | 2 µg/mL (≈ 9.43 µM)
11 | C(=C\c1ccccc1)/B1OCc2ccccc21 | 8 µg/mL (≈ 36.4 µM) | 8 µg/mL (≈ 36.4 µM) | 2 µg/mL (≈ 9.09 µM) | 4 µg/mL (≈ 18.2 µM) | 4 µg/mL (≈ 18.2 µM)
12 | OB1OCc2ccc3ccccc3c21 | 4 µg/mL (≈ 21.7 µM) | 2 µg/mL (≈ 10.9 µM) | 32 µg/mL (≈ 174 µM) | 32 µg/mL (≈ 174 µM) | 32 µg/mL (≈ 174 µM)
13 | OB1OCc2cc(F)c(F)cc21 | 4 µg/mL (≈ 23.5 µM) | 4 µg/mL (≈ 23.5 µM) | 4 µg/mL (≈ 23.5 µM) | 2 µg/mL (≈ 11.8 µM) | 2 µg/mL (≈ 11.8 µM)
14 | OB1OCc2cccc(F)c21 | 16 µg/mL (≈ 105 µM) | 16 µg/mL (≈ 105 µM) | 32 µg/mL (≈ 211 µM) | 32 µg/mL (≈ 211 µM) | 4 µg/mL (≈ 26.3 µM)
15 | OB1OCc2cc(C(F)(F)F)ccc21 | 8 µg/mL (≈ 39.6 µM) | 8 µg/mL (≈ 39.6 µM) | 16 µg/mL (≈ 79.2 µM) | 16 µg/mL (≈ 79.2 µM) | 8 µg/mL (≈ 39.6 µM)
16 | Fc1ccc2c(c1)COB2c1cccnc1 | 16 µg/mL (≈ 75.1 µM) | 32 µg/mL (≈ 150 µM) | 4 µg/mL (≈ 18.8 µM) | 16 µg/mL (≈ 75.1 µM) | 16 µg/mL (≈ 75.1 µM)
17 | Cc1cccc(B2OCc3cc(F)ccc32)c1 | 2 µg/mL (≈ 8.85 µM) | 4 µg/mL (≈ 17.7 µM) | 1 µg/mL (≈ 4.42 µM) | 0.5 µg/mL (≈ 2.21 µM) | 0.5 µg/mL (≈ 2.21 µM)

Row | Structure (SMILES) | MIC [1] | MIC [2] | MIC [3] | MIC [4] | MIC [5]
18 | Cc1ccc2c(c1)COB2O | 8 µg/mL (≈ 54.1 µM) | 4 µg/mL (≈ 27 µM) | 2 µg/mL (≈ 13.5 µM) | 8 µg/mL (≈ 54.1 µM) | 2 µg/mL (≈ 13.5 µM)
19 | OB1OCCc2cc(F)ccc21 | 32 µg/mL (≈ 193 µM) | 32 µg/mL (≈ 193 µM) | 64 µg/mL (≈ 386 µM) | > 64 µg/mL | 32 µg/mL (≈ 193 µM)
20 | Fc1ccc2c(c1)COB2c1cccc(Cl)c1 | 4 µg/mL (≈ 16.2 µM) | 8 µg/mL (≈ 32.5 µM) | 0.25 µg/mL (≈ 1.01 µM) | 0.5 µg/mL (≈ 2.03 µM) | 2 µg/mL (≈ 8.11 µM)
21 | c1ccc(B2OCc3ccccc32)cc1 | 4 µg/mL (≈ 20.6 µM) | 4 µg/mL (≈ 20.6 µM) | 4 µg/mL (≈ 20.6 µM) | 8 µg/mL (≈ 41.2 µM) | 4 µg/mL (≈ 20.6 µM)
22 | Fc1cccc(B2OCc3ccccc32)c1 | 8 µg/mL (≈ 37.7 µM) | 16 µg/mL (≈ 75.5 µM) | 4 µg/mL (≈ 18.9 µM) | 4 µg/mL (≈ 18.9 µM) | 8 µg/mL (≈ 37.7 µM)
23 | Fc1ccc(B2OCc3cc(F)ccc32)cc1 | 4 µg/mL (≈ 17.4 µM) | 4 µg/mL (≈ 17.4 µM) | 1 µg/mL (≈ 4.35 µM) | 1 µg/mL (≈ 4.35 µM) | 2 µg/mL (≈ 8.69 µM)
24 | Clc1cccc(B2OCc3ccccc32)c1 | 16 µg/mL (≈ 70 µM) | 8 µg/mL (≈ 35 µM) | 8 µg/mL (≈ 35 µM) | 4 µg/mL (≈ 17.5 µM) | 8 µg/mL (≈ 35 µM)
25 | Cc1ccc(B2OCc3cc(F)ccc32)cc1 | 2 µg/mL (≈ 8.85 µM) | 2 µg/mL (≈ 8.85 µM) | 0.5 µg/mL (≈ 2.21 µM) | 0.5 µg/mL (≈ 2.21 µM) | 0.5 µg/mL (≈ 2.21 µM)
26 | N#Cc1ccc2c(c1)COB2O | 16 µg/mL (≈ 101 µM) | 16 µg/mL (≈ 101 µM) | 8 µg/mL (≈ 50.3 µM) | 8 µg/mL (≈ 50.3 µM) | 16 µg/mL (≈ 101 µM)
27 | Fc1ccc2c(c1)COB2c1ccsc1 | 1 µg/mL (≈ 4.59 µM) | 4 µg/mL (≈ 18.3 µM) | 1 µg/mL (≈ 4.59 µM) | 1 µg/mL (≈ 4.59 µM) | 1 µg/mL (≈ 4.59 µM)
28 | OB1OCc2ccc(F)cc21 | 16 µg/mL (≈ 105 µM) | 32 µg/mL (≈ 211 µM) | 16 µg/mL (≈ 105 µM) | 32 µg/mL (≈ 211 µM) | 8 µg/mL (≈ 52.7 µM)
29 | Fc1ccc2c(c1)CCOB2c1ccccc1 | 8 µg/mL (≈ 35.4 µM) | 8 µg/mL (≈ 35.4 µM) | 8 µg/mL (≈ 35.4 µM) | 8 µg/mL (≈ 35.4 µM) | 8 µg/mL (≈ 35.4 µM)
30 | Fc1ccc2c(c1)COB2c1ccoc1 | 4 µg/mL (≈ 19.8 µM) | 4 µg/mL (≈ 19.8 µM) | 4 µg/mL (≈ 19.8 µM) | 4 µg/mL (≈ 19.8 µM) | 4 µg/mL (≈ 19.8 µM)
31 | OB1OCc2cc(Cl)ccc21 [AN-2718] | 1 µg/mL (≈ 5.94 µM) | 2 µg/mL (≈ 11.9 µM) | 1 µg/mL (≈ 5.94 µM) | 2 µg/mL (≈ 11.9 µM) | 1 µg/mL (≈ 5.94 µM)
32 | OB1OCc2ccccc21 [BENZOXABOROLE] | 8 µg/mL (≈ 59.7 µM) | 4 µg/mL (≈ 29.9 µM) | 2 µg/mL (≈ 14.9 µM) | 1 µg/mL (≈ 7.47 µM) | 2 µg/mL (≈ 14.9 µM)
33 | Cc1cc(C2CCCCC2)n(O)c(=O)c1 [CICLOPIROX] | 0.5 µg/mL (≈ 2.41 µM) | 0.5 µg/mL (≈ 2.41 µM) | 0.5 µg/mL (≈ 2.41 µM) | 0.5 µg/mL (≈ 2.41 µM) | 1 µg/mL (≈ 4.82 µM)
34 | OB1OCc2cc(F)ccc21 [TAVABOROLE] | 1 µg/mL (≈ 6.58 µM) | 1 µg/mL (≈ 6.58 µM) | 0.5 µg/mL (≈ 3.29 µM) | 0.25 µg/mL (≈ 1.65 µM) | 0.25 µg/mL (≈ 1.65 µM)

Reference: ChEMBL document CHEMBL1138046, “Discovery of a new boron-containing antifungal agent, 5-fluoro-1,3-dihydro-1-hydroxy-2,1- benzoxaborole (AN2690), for the potential treatment of onychomycosis” (2006)
